BindingDB's records for doi:10.1021/ja058636j (Purdue University, 2006)

Key:
Assay in all cases: Enzyme Inhibition Measurements
Conditions in all cases: pH 4.5; 37 °C
[1] = biological target: Cathepsin D (Homo sapiens, UniProt P07339)
Protocol: (§1) Enzyme activities were assayed by monitoring the hydrolysis of substrate in the presence or absence of inhibitor compounds. The hydrolysis was recorded as the increase in fluorescence intensity over a 10 min time period. […] The Ki was calculated by using Ki = IC50/ (1 + [S]/Km), and a Km value determined according to Michaelis-Menten.

[2] = biological target: Beta-secretase 1 (Homo sapiens, UniProt P56817)
Protocol: as §1

[3] = biological target: T1, Beta-secretase 2 (Homo sapiens, UniProt Q9Y5Z0)
T1 sequence (Q9Y5Z0 whole entry): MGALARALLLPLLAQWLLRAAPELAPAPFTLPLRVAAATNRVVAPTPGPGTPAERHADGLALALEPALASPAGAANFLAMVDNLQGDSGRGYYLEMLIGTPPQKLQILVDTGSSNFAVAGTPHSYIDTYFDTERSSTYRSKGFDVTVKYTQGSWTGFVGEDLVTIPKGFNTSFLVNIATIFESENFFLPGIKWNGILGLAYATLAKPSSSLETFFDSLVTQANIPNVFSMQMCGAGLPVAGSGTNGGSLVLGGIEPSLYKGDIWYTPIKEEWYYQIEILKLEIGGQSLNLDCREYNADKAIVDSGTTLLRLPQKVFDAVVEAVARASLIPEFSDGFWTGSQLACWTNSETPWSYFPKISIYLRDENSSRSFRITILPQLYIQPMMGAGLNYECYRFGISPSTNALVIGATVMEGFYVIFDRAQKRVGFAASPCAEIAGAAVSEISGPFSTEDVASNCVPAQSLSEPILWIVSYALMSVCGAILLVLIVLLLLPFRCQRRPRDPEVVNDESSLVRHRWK
Protocol: as §1

Beta-secretase 1, sequence (P56817 whole entry): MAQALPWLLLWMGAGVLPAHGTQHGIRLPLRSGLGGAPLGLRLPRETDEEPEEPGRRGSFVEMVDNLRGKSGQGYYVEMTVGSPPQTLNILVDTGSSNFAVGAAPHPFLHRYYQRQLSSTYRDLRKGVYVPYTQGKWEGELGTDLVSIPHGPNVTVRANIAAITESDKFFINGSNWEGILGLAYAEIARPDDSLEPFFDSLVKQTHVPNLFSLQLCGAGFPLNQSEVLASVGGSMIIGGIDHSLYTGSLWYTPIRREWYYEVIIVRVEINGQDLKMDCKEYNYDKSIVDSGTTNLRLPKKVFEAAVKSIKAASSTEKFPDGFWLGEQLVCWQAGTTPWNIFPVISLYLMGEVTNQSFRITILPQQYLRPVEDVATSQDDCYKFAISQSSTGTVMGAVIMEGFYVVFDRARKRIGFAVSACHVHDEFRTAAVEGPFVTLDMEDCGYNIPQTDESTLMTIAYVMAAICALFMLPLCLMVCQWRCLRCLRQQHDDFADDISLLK
Cathepsin D, sequence (P07339 65-162 limits assumed): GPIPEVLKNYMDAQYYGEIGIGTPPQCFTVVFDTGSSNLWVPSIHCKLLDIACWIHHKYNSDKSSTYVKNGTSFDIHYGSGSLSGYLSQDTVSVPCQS
Cathepsin D, sequence (P07339 169-412 limits assumed): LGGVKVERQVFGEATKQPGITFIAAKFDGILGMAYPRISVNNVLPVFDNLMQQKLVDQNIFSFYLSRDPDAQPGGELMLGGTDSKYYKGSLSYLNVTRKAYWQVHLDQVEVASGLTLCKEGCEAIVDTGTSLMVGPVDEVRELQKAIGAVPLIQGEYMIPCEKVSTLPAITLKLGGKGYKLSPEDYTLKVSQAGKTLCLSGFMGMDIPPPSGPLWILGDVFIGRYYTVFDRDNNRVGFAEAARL

Row | SMILES | Ki [1] [nM] | Ki [2] [nM] | Ki [3] [nM]
1 | CSC[C@H](NC(=O)OCn1nc(C)cc1C)C(=O)N[C@@H](CC(C)C)[C@@H](O)C[C@@H](C)C(=O)N[C@H](C(=O)NCC(C)C)C(C)C [(3,5-dimethyl-1H-pyrazol-1-yl)methyl N-[(1R)-1-{[(1R,3S,4S)-3-hydroxy-1,6-dimethyl-1-{[(1S)-2-methyl-1-[(2-methylpropyl)carbamoyl]propyl]carbamoyl}heptan-4-yl]carbamoyl}-2-(methylsulfanyl)ethyl]carbamate] | 15 | 4.4 | 161
2 | CSCC[C@H](NC(=O)OCn1nc(C)cc1C)C(=O)N[C@@H](CC(C)C)[C@@H](O)C[C@@H](C)C(=O)N[C@H](C(=O)NCc1ccccc1)C(C)C [(3,5-dimethyl-1H-pyrazol-1-yl)methyl N-[(1S)-1-{[(1R,3S,4S)-1-{[(1S)-1-(benzylcarbamoyl)-2-methylpropyl]carbamoyl}-3-hydroxy-1,6-dimethylheptan-4-yl]carbamoyl}-3-(methylsulfanyl)propyl]carbamate] | 25 | 14 | 
3 | Cc1nc(COC(=O)N[C@@H](CS(C)(=O)=O)C(=O)N[C@@H](CC(C)C)[C@@H](O)C[C@@H](C)C(=O)N[C@H](C(=O)NCC(C)C)C(C)C)c(C)o1 [N2-[(2R,4S,5S)-5-{[N-{[(2,5-dimethyl-1,3-oxazol-4-yl)methoxy]carbonyl}-3-(methylsulfonyl)-L-alanyl]amino}-4-hydroxy-2,7-dimethyloctanoyl]-N-(2-methylpropyl)-L-valinamide] | 304 | 0.12 | 458
